Holding throughout (type): in vivo
In experiment [1] the test system is Ctenocephalides felis. The experiment is described as follows: Ctenocephalides felis oral test (CTECFE). As to conditions: 48 h, 100 ppm in cattle blood, after 2 days. Put shortly:
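About 20 adult unfed fleas fed through parafilm on cattle blood held at 37° C and dosed with compound from a DMSO concentrate; flea chamber at room temperature. Percent mortality scored after 2 days.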

The subject of a further experiment is Diabrotica balteata. Description: Diabrotica balteata spray test. The note with it: 168 h, wheat seeds, after 7 days, read-out: activity (efficacy, seedlings grown). Put shortly:
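Germinated wheat seedlings (5 per well, on agar) sprayed with compound in acetone/DMF with emulsifier-containing water, then infested with 10–20 Diabrotica balteata larvae. Efficacy (%) scored after 7 days from seedling growth: 100% = growth as untreated uninfested control, 0% = no seedlings grown.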

Experiment [2] concerns Myzus persicae. Description: Myzus persicae spray test. As to conditions: foliar, 120 h, Chinese cabbage leaf disks, after 5 days. The procedure:
Myzus persicae—Spray Test
Solvent: 78.0 parts by weight acetone • 1.5 parts by weight dimethylformamide
Emulsifier: alkylarylpolyglycol ether
To produce a suitable preparation of active compound, 1 part by weight of active compound is mixed with the stated amount of solvents and is diluted with water, containing an emulsifier concentration of 1000 ppm, to the desired concentration. Further test concentrations are prepared by dilution with emulsifier containing water.
Chinese cabbage (Brassica pekinensis) leaf disks infected with all instars of the green peach aphid (Myzus persicae), are sprayed with a preparation of the active ingredient of the desired concentration.
(§1) After 5 days mortality in % is determined. 100% means all aphids have been killed and 0% means none of the aphids have been killed.

Experiment [3] deals with Rhipicephalus microplus (strain Parkhurst, resistant against synthetic pyrethroids). Description: Rhipicephalus microplus in-vitro contact test, larval cattle tick (BOOPMI Contact). The note with it: 5 μg/cm^2 (=500 g/ha), after 48 hours, read-out: activity (efficacy, larvae dead or moribund). Put shortly: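 Glass tubes coated with compound in acetone (900 ppm giving 5 μg/cm²), dried, then loaded with 20-50 pyrethroid-resistant Parkhurst larvae and held at 27 °C, 85% RH. After 48 h negative geotaxis is scored; efficacy in % dead or moribund larvae.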

Another experiment deals with Meloidogyne incognita. The experiment is described as follows: Meloidogyne incognita test. The note with it: 20 ppm, after 14 days. How it is done: Meloidogyne incognita—Test
Solvent: 125.0 parts by weight of acetone
To produce a suitable preparation of active compound, 1 part by weight of active compound is mixed with the stated amount of solvent, and the concentrate is diluted with water to the desired concentration.
Vessels are filled with sand, a solution of the active ingredient, a suspension containing eggs and larvae of the southern root-knot nematode (Meloidogyne incognita) and salad seeds. The salad seeds germinate, and the seedlings grow. Galls develop in the roots.
After 14 days the nematicidal activity is determined based on the percentage of gall formation. 100% means no galls were found and 0% means the number of galls found on the roots of the treated plants was equal to that in untreated control plants.

Experiment [4] deals with Aedes aegypti strain MONHEIM. Description: Aedes aegypti test (AEDSAE surface treatment & contact assay). The note with it: 30 minutes exposure, 24 hours after contact, read-out: efficacy (mortality); for mortality at 4 mg/m2: surface concentration 4 mg/m^2, glazed tile; for mortality at 20 mg/m2: surface concentration 20 mg/m^2, glazed tile. The procedure: Aedes aegypti Test (AEDSAE Surface Treatment & Contact Assay)
(§2) Solvent: Aceton+2000 ppm rapeseed oil methyl ester (RME)
In order to produce a sufficient, active ingredient containing solution it is necessary to solve the test compound in the solvent-mix (acetone at 2 mg/mL/RME 2000 ppm). This solution is pipetted onto a glazed tile and after evaporation of the acetone, adult mosquitoes of the species Aedes aegypti strain MONHEIM are placed onto the dried surface. The exposure time is 30 minutes.
(§3) Mortality in percent (%) is determined 24 hours after contact of the insects to the treated surface. 100% mortality means that all tested insects are dead, whereas 0% means that no insect died.

Experiment [5] relates to Musca domestica strain WHO-N. The experiment is described as follows: Musca domestica test (MUSCDO surface treatment & contact assay). The note with it: 30 minutes exposure, 24 hours after contact, read-out: efficacy (mortality); for mortality at 4 mg/m2: surface concentration 4 mg/m^2, glazed tile. The procedure: Musca domestica Test (MUSCDO Surface Treatment & Contact Assay)
as §2
In order to produce a sufficient, active ingredient containing solution it is necessary to solve the test compound in the solvent-mix (acetone at 2 mg/mL/RME 2000 ppm). This solution is pipetted onto a glazed tile and after evaporation of the acetone, adult flies of the species Musca domestica strain WHO—N are placed onto the dried surface. The exposure time is 30 minutes.
as §3

The next experiment deals with Rhipicephalus sanguineus. The experiment is described as follows: Rhipicephalus sanguineus in-vitro contact test, adult brown dog ticks (RHIPSA Contact). The note with it: 5 μg/cm^2 (=500 g/ha), after 48 hours, read-out: activity (efficacy, ticks dead or moribund). The procedure: Rhipicephalus sanguineus—in-Vitro Contact Tests with Adult Brown Dog Ticks (RHIPSA Contact)
9 mg compound is solved in 1 ml acetone and diluted with acetone to the desired concentration. 250 μl_, of the test solution is filled in 25 ml glass test tubes and homogeneously distributed on the inner walls by rotation and tilting on a shaking device (2 h at 30 rpm). With a compound concentration of 900 ppm, an inner surface of 44.7 cm^2 and a homogeneous distribution, a dose of 5 μg/cm^2 is achieved.
After the solvent has evaporated, each test tube is filled with 5-10 adult brown dog ticks (Rhipicephalus sanguineus), closed with a perforated lid and incubated in a lying position at room temperature and relative humidity. After 48 hours efficacy is determined. The ticks are patted on the ground of the tubes and are incubated on a heating plate at 45-50° C. for at most 5 minutes Immotile or uncoordinated moving ticks, which are not able to escape the heat by climbing upwards, are marked as dead or moribund.
An efficacy of 100% means all ticks are dead or moribund; 0% means no ticks are dead or moribund.

Experiment [6] relates to Ctenocephalides felis. The experiment is described as follows: Ctenocephalides felis in-vitro contact test, adult cat flea. As to conditions: 5 μg/cm^2 (=500 g/ha), after 48 hours, read-out: activity (efficacy, fleas dead or moribund). In outline: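 Acetone solutions coated onto inner walls of glass tubes; 900 ppm gives 5 μg/cm^2. After drying, 5-10 adult Ctenocephalides felis per tube held 48 h at room temperature. Fleas then placed on 45-50° C. plate for up to 5 min; those unable to climb away scored dead or moribund, efficacy as % dead/moribund.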

The subject of a further experiment is Spodoptera frugiperda. Description: Spodoptera frugiperda spray test. The note with it: in Zea mays, 168 h, read-out: activity (mortality). Put shortly: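 Compound in acetone/DMF, diluted in water with 1000 ppm alkylarylpolyglycol ether emulsifier, sprayed on maize leaf sections. Dried leaves infested with fall armyworm larvae; % mortality after 7 days (100% = all killed, 0% = none).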

In experiment [7] the test system is Anopheles funestus strain FUMOZ-R. The experiment is described as follows: Anopheles funestus test (ANPHFU surface treatment & contact assay). The note with it: 30 minutes exposure, 24 hours after contact, read-out: efficacy (mortality); for mortality at 4 mg/m2: surface concentration 4 mg/m^2, glazed tile; for mortality at 20 mg/m2: surface concentration 20 mg/m^2, glazed tile. The procedure: Anopheles funestus Test (ANPHFU Surface Treatment & Contact Assay)
as §2
In order to produce a sufficient, active ingredient containing solution it is necessary to solve the test compound in the solvent-mix (acetone at 2 mg/mL/RME 2000 ppm). This solution is pipetted onto a glazed tile and after evaporation of the acetone, adult mosquitoes of the species Anopheles funestus strain FUMOZ-R (Hunt et al., Med. Vet. Entomol. 2005 September; 19(3): 271-275) are placed onto the dried surface. The exposure time is 30 minutes.
as §3

Experiment [8] relates to Myzus persicae. Description: Myzus persicae oral test. As to conditions: 120 h, after 5 days. How it is done:
Solvent: 100 parts by weight acetone
Afterwards the plates are sealed with parafilm through which a mixed population of the green peach aphid (Myzus persicae) can suck on the compound preparation.
as §1

In a further experiment the test system is Boophilus microplus. Description: Boophilus microplus injection test (BOOPMI Injection). As to conditions: Rhipicephalus microplus, 168 h; 20 μg/animal, injection into adult engorged female ticks, egg deposition after 7 days; read-out: activity (efficacy, infertile eggs). In outline: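 Adult engorged female ticks (5 per group) injected into the abdomen with 1 μL compound in DMSO, then held in a climate chamber. Fertile egg deposition scored after 7 days, with unclear eggs kept until hatching (~42 days). Efficacy 100% = all eggs infertile, 0% = all fertile.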

Turning to `C[C@H](Nc1nc2cc(Cl)cc(Cl)c2o1)c1ncnn1-c1ncccn1` [Example I-013], the mortality at 100 ppm with Ctenocephalides felis [1] amounted to 90%. In the experiment on Diabrotica balteata (500 g/ha (=160 μg/well)), the pest or weed control at 160 µg/disc, 500 g/ha was determined as 100%. In addition, in the experiment on Myzus persicae [2] (500 g/ha), the mortality at 500 g/ha was 100%. Moreover, in experiment [3], the pest or weed control at 5 µg/cm2 stood at 100%.

For the compound `C[C@H](Nc1nc2cc(C(F)(F)F)cc(Cl)c2o1)c1ncnn1-c1ccc(Cl)nn1` [Example I-046, 7-Chlor-N-{(1S)-1-[1-(6-chlorpyridazin-3-yl)-1H-1,2,4-triazol-5-yl]ethyl}-5-(trifluormethyl)-1,3-benzoxazol-2-amin], the pest or weed control at 5 µg/cm2 in experiment [3] was 80%. In addition, the “activity (nematicidal activity, gall formation)” value in the experiment with Meloidogyne incognita came to 90%.

On to `C[C@H](Nc1nc2cc(C(F)(F)F)c(Cl)cc2o1)c1ncnn1-c1ncc(Cl)cn1` [Example I-059, 6-Chlor-N-{(1)S-1-[1-(5-chlorpyrimidin-2-yl)-1H-1,2,4-triazol-5-yl]ethyl}-5-(trifluormethyl)-1,3-benzoxazol-2-amin], for which the mortality at 4 mg/m2 in experiment [4] lay in the range of 85 to 100%; in experiment [5], 90 to 100%; in [7], 85 to 100%. Besides, the mortality at 20 mg/m2 in [4] and in experiment [7] was 90 to 100% throughout. For the same compound, in the experiment on Diabrotica balteata, the pest or weed control at 100 g/ha was found to be 100%. Also, the pest or weed control at 5 µg/cm2, 5 µg/cm2 in the experiment on Rhipicephalus sanguineus and with Ctenocephalides felis [6] was 100% throughout. Further, the mortality at 100 g/ha in the experiment on Spodoptera frugiperda is 100%. The pest or weed control at 5 µg/cm2 in experiment [3] is 100%. For the same compound, the mortality at 4 ppm in the experiment on Myzus persicae [8] was found to be 90%.

As to `C[C@H](Nc1nc2cc(C(F)(F)F)c(Cl)cc2o1)c1ncnn1-c1ncc(F)cn1` [Example I-061, 6-Chlor-N-{(1S)-1-[1-(5-fluorpyrimidin-2-yl)-1H-1,2,4-triazol-5-yl]ethyl}-5-(trifluormethyl)-1,3-benzoxazol-2-amin], the mortality at 4 mg/m2 in [4] is 85 to 100%; in [5], 90 to 100%; in experiment [7] it was 85 to 100%. Moreover, the mortality at 20 mg/m2 in experiment [4] was in the range of 90 to 100%. Moreover, the pest or weed control at 100 g/ha in the experiment with Diabrotica balteata was determined as 100%. For the same compound, the pest or weed control at 5 µg/cm2, 5 µg/cm2 stood at 80% with Rhipicephalus sanguineus and 100% with Ctenocephalides felis [6]. Moreover, the mortality at 100 g/ha with Spodoptera frugiperda came to 100%. Further, in experiment [3], the pest or weed control at 5 µg/cm2 amounted to 100%. For the same compound, the mortality at 4 ppm in the experiment with Myzus persicae [8] is 100%.

`C[C@H](Nc1nc2cc(OC(F)(F)F)c(Cl)cc2o1)c1ncnn1-c1ncc(F)cn1` [Example I-081, 6-Chlor-N-{(1S)-1-[1-(5-fluorpyrimidin-2-yl)-1H-1,2,4-triazol-5-yl]ethyl}-5-(trifluormethoxy)-1,3-benzoxazol-2-amin]: the results for the mortality at 4 mg/m2 in [4], in experiment [5] and in [7] were 85 to 100%, 90 to 100% and 85 to 100%, respectively. Further, the mortality at 20 mg/m2 in [4] was 90 to 100%; in experiment [5] (surface concentration 20 mg/m^2, glazed tile), 90 to 100%; in experiment [7], 90 to 100%. In addition, in the experiment with Diabrotica balteata, the pest or weed control at 100 g/ha worked out at 100%. Further, the pest or weed control at 5 µg/cm2, 5 µg/cm2 in the experiment on Rhipicephalus sanguineus and with Ctenocephalides felis [6] was 100% each time. Moreover, the mortality at 100 g/ha is 90% with Myzus persicae [2] and 100% in the experiment with Spodoptera frugiperda. The pest or weed control at 5 µg/cm2 in experiment [3] is 90%. Besides, the mortality at 4 ppm with Myzus persicae [8] stood at 90%.

Consider `C[C@H](Nc1nc2cc(Cl)cc(C(F)(F)F)c2o1)c1ncnn1-c1ccc(C(F)(F)F)cn1` [Example I-087, 5-Chlor-7-(trifluormethyl)-N-[(1S)-1-{1-[5-(trifluormethyl)pyridin-2-yl]-1H-1,2,4-triazol-5-yl}ethyl]-1,3-benzoxazol-2-amin], for which, in [3], the pest or weed control at 5 µg/cm2 came to 100%. For the same compound, in the experiment on Meloidogyne incognita, the “activity (nematicidal activity, gall formation)” value is on record as 90%.

For `C[C@H](Nc1nc2c(Cl)cc(C(F)(F)F)cn2n1)c1ncnn1-c1ncccn1` [Example I-092, 8-chloro-N-{(1S)-1-[1-(pyrimidin-2-yl)-1H-1,2,4-triazol-5-yl]ethyl}-6-(trifluoromethyl)[1,2,4]triazolo[1,5-a]pyridin-2-amine], the mortality at 100 ppm in the experiment on Ctenocephalides felis [1] amounted to 100%. In addition, the pest or weed control at 0.02 mg with Boophilus microplus came to 100%. For the same compound, in the experiment on Ctenocephalides felis [6], the pest or weed control at 5 µg/cm2, 5 µg/cm2 is 90%. Also, the mortality at 100 g/ha in the experiment on Myzus persicae [2] was 90%. Further, in [3], the pest or weed control at 5 µg/cm2 was 100%.

`C[C@H](Nc1nc2c(Cl)cc(C(F)(F)F)cn2n1)c1ncnn1-c1ncc(Br)cn1` [Example I-093, N-{(1S)-1-[1-(5-bromopyrimidin-2-yl)-1H-1,2,4-triazol-5-yl]ethyl}-8-chloro-6-(trifluoromethyl)[1,2,4]triazolo[1,5-a]pyridin-2-amine] had a mortality at 100 ppm in the experiment on Ctenocephalides felis [1] of 100%. The pest or weed control at 5 µg/cm2, 5 µg/cm2 in the experiment on Ctenocephalides felis [6] was found to be 100%. The compound also yielded a mortality at 100 g/ha in the experiment on Myzus persicae [2] of 90%. Further, the pest or weed control at 5 µg/cm2 in [3] came out at 100%.

The record behind these values is patent US12384769B2, “Heteroaryl-substituted aminoalkyl azole compounds as pesticides” (Elanco Animal Health GmbH, priority 2019, dated 2025).
